US7060707B2, “Isoquinoline derivatives” (Merck Patent GmbH, priority 2002, dated 2006)

melting point: 103 to 109 °C
Compound: Cc1ccnc(NCCCCC(=O)NNC(=O)N2CCc3ccccc3C2CC(=O)O)c1 (stereo not shown) [Example 4]
